Measured values as given in patent publication US6974871B2, “Dequalinium analogs” (priority 2000, dated 2005).
Where “and” joins values, the source holds several entries; their conditions need not be identical. Equal entries are not always repeated.

Key:
Recombinant human PKCα = target: T1, Recombinant human PKCα (Homo sapiens, UniProt P17252); test: Assay of PKCα catalytic activity in vitro; type: biochemical; conditions: for IC50: reversible binding conditions, average of two or more independent experiments (± s.d.), read-out: IC50 (analogue concentration producing 50% inhibition of PKCα activity); for fold stronger inhibitory potency compared with C6-DECA (1a): IC50 ratio versus 1a; for fold stronger inhibitory potency than 1c: IC50 ratio versus 1c (C10-DECA)
T1 construct: purchased PanVera Corp., Madison, Wis
Description: Assay of PKCα Catalytic Activity In Vitro
(§1) Recombinant human PKCα (>95% pure) (PanVera Corp., Madison, Wis.) was used for testing DECA analogues in vitro. Total PKCα catalytic activity (36 ng protein) and the indicated concentration of DECA analogue was measured in triplicate in the presence of activating cofactors (10 μg phosphatidylserine, 0.5 mM Ca^2+) by the transfer of ^32P from [γ-^32P]-ATP to the modified pseudosubstrate peptide (RFARKGSLRQKNV), as described elsewhere^1. For assay of partially purified B16 F10 cell lysates (25 μg/assay), PKC activity was taken as the difference in phosphotransferase activity measured in triplicate in the presence and absence of activating cofactors (10 μg phosphatidylserine, 0.5 mM Ca^2+) as previously described^2.

[1] = target: protein kinase C (PKC) isoforms (e.g., α, β1); conditions: several isoforms (e.g., α, β1); read-out: IC50 for PKC isoforms in vitro; cited from earlier work
intracellular PKCα = target: T2, intracellular PKCα (Mus musculus, UniProt P20444); test: Photoinduced inactivation of intracellular PKC activity in melanoma cells (DECA analogue plus longwave UV); type: cell-based, murine; conditions: B16 F10 cells; for inhibition at 0.25 µM: 250 nM, 1 h, plus UV irradiation 5 min
T2 construct: endogenous in cells; host or cells: murine melanoma B16 F10 cells
Description: as §1
Inactivation of PKCα in Murine Melanoma Cells with Ultraviolet Radiation and DECA Analogues
Murine melanoma B16 F10 cells were cultured in 15 cm^2 dishes to 75-80% confluence in RPMI medium containing 10% fetal bovine serum, 1% penicillin/streptomycin, and 0.125 μg/ml fungizone. Prior to drug application, cells were washed twice with phosphate buffered saline (PBS) and were restored in serum-free medium containing either DMSO (0.1% v/v) or 250 nM C12-, C14-, or C16-DECA analogue. Monolayers of cells were treated with or without the indicated DECA analogue for 1 h and irradiated for 5-min (1200 μW/cm^2) with a UV lamp (American Ultraviolet Co., Murray Hill, N.J.). Following this treatment, the medium was removed and the cells were washed twice with PBS. Preparation of cell lysates was followed by partial purification by DEAE-Sephacel chromatography, as previously described^2.
(§2) A confluent monolayer of cells was washed twice with PBS and the indicated concentration of DECA analogue was added to the cells in serum-free medium. Cells were treated with or without the drug for 1 h at 37° C., 5% CO2, followed by washing with PBS. In PBS and with the lids off, cells were irradiated with longwave UV light for 5-min (1200 μW/cm^2). […]

[2] = target: pp60src tyrosine protein kinase (Homo sapiens, UniProt P12931); test: Inhibition of homologous protein kinase pp60src; type: biochemical; conditions: micromolar concentrations
pp60src tyrosine protein kinase, sequence (P12931 whole entry): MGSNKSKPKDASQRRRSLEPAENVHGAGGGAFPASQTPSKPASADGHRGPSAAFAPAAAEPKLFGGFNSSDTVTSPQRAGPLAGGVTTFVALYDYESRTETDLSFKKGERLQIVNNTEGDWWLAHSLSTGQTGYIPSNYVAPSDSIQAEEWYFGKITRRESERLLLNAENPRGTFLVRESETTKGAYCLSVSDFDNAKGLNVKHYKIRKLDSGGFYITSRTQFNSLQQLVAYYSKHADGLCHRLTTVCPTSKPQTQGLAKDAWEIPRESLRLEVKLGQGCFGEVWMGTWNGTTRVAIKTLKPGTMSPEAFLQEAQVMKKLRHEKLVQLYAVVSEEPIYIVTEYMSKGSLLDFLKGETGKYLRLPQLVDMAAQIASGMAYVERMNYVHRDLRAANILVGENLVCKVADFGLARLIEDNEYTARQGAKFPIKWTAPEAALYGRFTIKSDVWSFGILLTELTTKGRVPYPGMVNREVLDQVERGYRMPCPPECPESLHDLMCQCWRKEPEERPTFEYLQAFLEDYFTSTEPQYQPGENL

[3] = system: calmodulin-dependent myosin light chain kinase; test: Inhibition of homologous protein kinase MLCK; type: biochemical; conditions: micromolar concentrations
[4] = system: murine melanoma B16 F10 cells; test: Cell migration in transwell (Boyden chamber); type: cell-based; conditions: for inhibition of cell migration: 250 nM plus UV 5 min, initial 3 h post-treatment, Boyden chamber
Description: A 12-mm Costar transwell (Boyden chamber) having a 12-μm pore size was used to measure cell movement across a porous polycarbonate membrane. The bottom surface was coated with 35 μg Matrigel for 1 h at 37° C., 5% CO2. Cells were seeded into the upper chamber of the transwell at 10^5 cells/well and incubated at 37° C., 5% CO2. Following incubation for 3 h, the upper chamber was carefully wiped with a cotton swab in order to remove cells that remained on the upper membrane surface. Those cells that had migrated to the lower membrane surface were fixed and stained by the H+E Method (Fisher Diagnostics Leukostat). By use of a Nikon Diaphot-TMD inverted microscope at 400× magnification, eight fields of adherent cells were randomly counted in each well and numerically averaged. Each condition was conducted in triplicate and statistical significance was determined by ANOVA using SigmaStat software.
Inhibition of cell migration by 250 nM DECA analogues (C10-(control), C12-, and C14-DECA) was analyzed during the initial 3 h post-treatment by the use of Boyden chambers. Cells that had been treated with a DECA analogue plus UV were applied to the upper surface of the membrane whereupon they moved chemotactically through the membrane, and adhered to Matrigel, which had been coated onto the under surface of the membrane. Following the initial 3 h, the number of cells migrating to this lower surface was measured.
as §2, with “μW/cm^2). Irradiation was carried out with a longwave UV lamp (American Ultraviolet Co., Murray Hill, N.J.) while the plate of cells were subjected to gentle shaking at room temperature. Following this treatment, the medium was removed and the cells were washed twice with PBS.” for “μW/cm^2).”

[5] = target: cAMP-dependent protein kinase (PKA) (Homo sapiens, UniProt P17612); test: Inhibition of homologous protein kinase PKA; type: biochemical; conditions: micromolar concentrations
[6] = system: murine melanoma B16 F10 cells; test: Time-lapse cell motility (scratch wound) assay; type: cell-based; conditions: 250 nM plus UV 5 min
Description: To measure cell motility by digital image capture, an Olympus IMT-2 inverted phase contrast microscope (Olympus Microscopes, UK), fitted with a Fujitsu TC2-336P CCD camera (EOS Electronics AV Ltd, Barry, Wales) and surrounded by a perspex temperature-regulated jacket that was adjusted to 37° C. Cells were plated onto 3-cm^2 petri dishes such that a densely confluent monolayer was achieved within 24 or 48 h. Following treatment of cells with C10-DECA and UV, a ‘scratch wound’ was created by drawing a sterile micro-pipette tip along the monolayer using a ruler as a guide. Detached cells were removed by washing twice in growth medium before adding 2 ml fresh medium. […] The chamber was gassed with 10% CO2 in humidified air and was placed onto the stage of the microscope. A regular wound edge was chosen and digital images were collected every 30 min for 8 h onto a Power Mac 7100 using Adobe Premier software. The percentage of the capture window (determined as 726 μm×544 μm) that had been filled in by the movement of cells (normalized to the original wound edge) was determined with Optilab software and plotted against time.
A confluent monolayer of cells was washed twice with PBS and the indicated concentration of DECA analogue was added to the cells in serum-free medium. Cells were treated with or without the drug for 1 h at 37° C., 5% CO2, followed by washing with PBS. […]

B16F10 cells = test: Experimental metastasis in mice (B16F10 tail vein injection, pulmonary nodules); type: in vivo, C57BL/6 mice; conditions: 5 mg/kg IP every other day for 2 weeks, versus vehicle
Description: In preparation for tail vein injections, mice were tranquilized with 0.2 mg of acepromazine via i.p. injections. B16F10 cells obtained from ex-vivo culture were injected into the tail vein (10^5 cells/0.2 ml). Animals were treated IP with vehicle (0.36% sodium citrate) or 5 mg/kg of C14-DECA on the day of the tail vein injection and every other day thereafter for a 2-3 week experiment. At the end of the experimental period, the mice were sacrificed by CO2 asphyxiation. The lungs were removed and placed in 10% formalin until the metastatic nodules were counted using a dissecting microscope.

Cc1cc(N)c2ccccc2[n+]1CCCCCC[n+]1c(C)cc(N)c2ccccc21 [Compound 1a]
IC50 (Recombinant human PKCα): 54 µM

Cc1cc(N)c2ccccc2[n+]1CCCCCCCC[n+]1c(C)cc(N)c2ccccc21 [Compound 1b]
IC50 (Recombinant human PKCα): 25 ± 9 µM

Cc1cc(N)c2ccccc2[n+]1CCCCCCCCCC[n+]1c(C)cc(N)c2ccccc21 [Compound 1c, quinolinium, 1,1′-(1,10-decanediyl)bis(4-amino-2-methyldiiodide)]
IC50 [1]: 10 to 14 µM
inhibition at 0.25 µM (intracellular PKCα): 35%
sensitivity of pp60src tyrosine protein kinase to inhibition [2]: insensitive
sensitivity of calmodulin-dependent myosin light chain kinase to inhibition [3]: insensitive
inhibition of cell migration [4]: 20-30%
sensitivity of PKA to inhibition [5]: insensitive
loss of cell motility [6]: 33%
IC50 (Recombinant human PKCα): 11 µM and 11 to 12 µM

Cc1cc(N)c2ccccc2[n+]1CCCCCCCCCCCC[n+]1c(C)cc(N)c2ccccc21 [Compound 1d, 1,1′-(1,12-Dodecanediyl)bis[4-amino-2-methyl]quinolinium, diiodide]
IC50 (Recombinant human PKCα): 5 ± 2 µM

Cc1cc(N)c2ccccc2[n+]1CCCCCCCCCCCCCC[n+]1c(C)cc(N)c2ccccc21 [Compound 1e, 1,1′-(1,14-Tetradecanediyl)bis[4-amino-2-methyl]quinolinium, diiodide]
inhibition of intracellular PKC activity without UV (intracellular PKCα; 250 nM alone, no UV): no inhibitory effect
inhibition at 0.25 µM (intracellular PKCα): 40 to 60%
fewer pulmonary nodules (B16F10 cells): 40%
inhibition of cell migration [4]: 40-60%
concentration dependence of inhibition of cell migration ([4]; range of 0-500 nM): dose-dependent
fold stronger inhibitory potency compared with C6-DECA (1a) (Recombinant human PKCα): 20 fold
fold stronger inhibitory potency than 1c (Recombinant human PKCα): 4 fold
IC50 (Recombinant human PKCα): 2.6 µM and 2.5 µM

Cc1cc(N)c2ccccc2[n+]1CCCCCCCCCCCCCCCC[n+]1c(C)cc(N)c2ccccc21 [Compound 1f, 1,1′-(1,16-Hexadecanediyl)bis[4-amino-2-methyl]quinolinium, diiodide]
fold stronger inhibitory potency compared with C6-DECA (1a) (Recombinant human PKCα): 20 fold
fold stronger inhibitory potency than 1c (Recombinant human PKCα): 4 fold
IC50 (Recombinant human PKCα): 2.6 µM and 2.8 µM

CCCCCCCCCC[n+]1c(C)cc(N)c2ccccc21 [Compound 2, N-Decyl-4-aminoquinaldinium iodide]
IC50 (Recombinant human PKCα): 117 ± 8 µM

Cc1cc(N)c2ccccc2[n+]1C [Compound 3]
IC50 (Recombinant human PKCα): 3590 ± 510 µM
